In data set [1] the target is T1, tau class glutathione S-transferase from Carica papaya (TCpGST) (Carica papaya, UniProt O49821). Put plainly: HPLC degradation assay ([…] after […] h); S67A inactive. It is filed as biochemical. Set-up: gene PGST1. To be noted: 120 min.
In data set [2] the target is T1, tau class glutathione S-transferase from Carica papaya (TCpGST). Described as above. To be noted: 120 min. Also on record: gene PGST1; full-length ORF (657 bp), C-terminal His6, pET-30a, E. coli BL21(DE3), Ni-NTA purified. The data set is classed as biochemical.

Data on 2 compounds can be found in publication PMC10958117, “G-site residue S67 is involved in the fungicide-degrading activity of a tau class glutathione S-transferase from Carica papaya” (The Journal of Biological Chemistry, 2024).

T1 sequence (O49821 1-218): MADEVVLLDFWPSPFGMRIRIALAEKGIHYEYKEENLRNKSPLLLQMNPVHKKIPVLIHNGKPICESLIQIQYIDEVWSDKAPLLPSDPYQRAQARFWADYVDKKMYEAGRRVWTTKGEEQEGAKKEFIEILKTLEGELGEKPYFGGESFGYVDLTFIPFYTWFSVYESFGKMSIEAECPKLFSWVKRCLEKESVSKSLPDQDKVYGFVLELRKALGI

Regarding `c1ccc2[nH]c(-c3cscn3)nc2c1` [compound 16, thiabendazole], the “%” value in data set [1] was determined as 69%.
Consider `N#Cc1c(Cl)c(Cl)c(Cl)c(C#N)c1Cl` [compound 11, chlorothalonil], for which the “%” value in data set [2] is on record as 26%.
